The values that follow come from US8754242B2, “Herbicides” (Syngenta Crop Protection LLC, priority 2007, dated 2014).

Type in all cases: in vivo
Experiment [1] has as its system Alopecurus myosuroides (ALOMY). As to the kind of experiment: Test Example 1 pre-emergence herbicidal activity. As to conditions: Alopecurus myosuroides, 480 h, rate 250 g/ha, evaluated 20 days later, read-out: Pre-emergence activity ALOMY (100=total damage to plant; 0=no damage to plant). The essentials:
(§1)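 Greenhouse pot test; spray application pre-emergence (1 d after sowing) or post-emergence (10 d growth). Rating 0–100% damage; pre read at 20 d, post at 15 d.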

Experiment [2] deals with Avena fatua (AVEFA). As to the kind of experiment: Test Example 1 pre-emergence herbicidal activity. As to conditions: Avena fatua, 480 h, rate 250 g/ha, evaluated 20 days later, read-out: Pre-emergence activity AVEFA (100=total damage to plant; 0=no damage to plant). The essentials: as §1
The test system of experiment [3] is Digitaria sanguinalis (DIGSA). As to the kind of experiment: Test Example 1 pre-emergence herbicidal activity. As to conditions: Digitaria sanguinalis, 480 h, rate 250 g/ha, evaluated 20 days later, read-out: Pre-emergence activity DIGSA (100=total damage to plant; 0=no damage to plant). The essentials:
as §1

In experiment [4] the test system is Echinochloa crus-galli (ECHCG). Put plainly: Test Example 1 pre-emergence herbicidal activity. The conditions noted are these: Echinochloa crus-galli, 480 h, rate 250 g/ha, evaluated 20 days later, read-out: Pre-emergence activity ECHCG (100=total damage to plant; 0=no damage to plant). The essentials: as §1
The subject of experiment [5] is Lolium perenne (LOLPE). Put plainly: Test Example 1 pre-emergence herbicidal activity. As to conditions: Lolium perenne, 480 h, rate 250 g/ha, evaluated 20 days later, read-out: Pre-emergence activity LOLPE (100=total damage to plant; 0=no damage to plant). The method, boiled down: as §1
The test system of experiment [6] is Setaria faberi (SETFA). As to the kind of experiment: Test Example 1 pre-emergence herbicidal activity. As to conditions: Setaria faberi, 480 h, rate 250 g/ha, evaluated 20 days later, read-out: Pre-emergence activity SETFA (100=total damage to plant; 0=no damage to plant). The essentials: as §1
Experiment [7] concerns Alopecurus myosuroides (ALOMY). Put plainly: Test Example 1 post-emergence herbicidal activity. The conditions noted are these: 360 h, rate 125 g/ha, evaluated 15 days later, read-out: Post-emergence activity ALOMY (100=total damage to plant; 0=no damage to plant). The essentials: as §1
For experiment [8], the system named is Avena fatua (AVEFA). Put plainly: Test Example 1 post-emergence herbicidal activity. The conditions noted are these: 360 h, rate 125 g/ha, evaluated 15 days later, read-out: Post-emergence activity AVEFA (100=total damage to plant; 0=no damage to plant). The essentials:
as §1

For experiment [9], the system named is Digitaria sanguinalis (DIGSA). As to the kind of experiment: Test Example 1 post-emergence herbicidal activity. As to conditions: 360 h, rate 125 g/ha, evaluated 15 days later, read-out: Post-emergence activity DIGSA (100=total damage to plant; 0=no damage to plant). The method, boiled down:
as §1

For experiment [10], the system named is Echinochloa crus-galli (ECHCG). Put plainly: Test Example 1 post-emergence herbicidal activity. The conditions noted are these: 360 h, rate 125 g/ha, evaluated 15 days later, read-out: Post-emergence activity ECHCG (100=total damage to plant; 0=no damage to plant). The essentials:
as §1

Experiment [11] concerns Lolium perenne (LOLPE). As to the kind of experiment: Test Example 1 post-emergence herbicidal activity. As to conditions: 360 h, rate 125 g/ha, evaluated 15 days later, read-out: Post-emergence activity LOLPE (100=total damage to plant; 0=no damage to plant). The essentials:
as §1

Experiment [12] deals with Setaria faberi (SETFA). As to the kind of experiment: Test Example 1 post-emergence herbicidal activity. As to conditions: 360 h, rate 125 g/ha, evaluated 15 days later, read-out: Post-emergence activity SETFA (100=total damage to plant; 0=no damage to plant). The essentials:
as §1

Regarding `Cc1cc(C)c(C2=C(OC(=O)C(C)C)[C@H]3[C@@H](C2=O)[C@@H]2CC[C@H]3O2)c(C)c1` [Example P10], the pest or weed control at 250 g/ha came to 100% in [1]; 100% with Avena fatua (AVEFA) [2]; 100% in [3]; 100% in experiment [4]; 100% in the experiment on Lolium perenne (LOLPE) [5]; 80% in the experiment on Setaria faberi (SETFA) [6]. The pest or weed control at 125 g/ha came out at 100% in experiment [7]; 90% in the experiment with Avena fatua (AVEFA) [8]; 80% in [9]; 100% in [10]; 100% in the experiment with Lolium perenne (LOLPE) [11]; 80% in the experiment with Setaria faberi (SETFA) [12].

Consider `CCc1cc(C)cc(CC)c1C1=C(OC(=O)CCCCCCC(=O)OC)[C@H]2[C@@H](C1=O)[C@@H]1CC[C@H]2O1` [Example P16], for which the pest or weed control at 250 g/ha came to 100% in experiment [1]; 90% with Avena fatua (AVEFA) [2]; 100% in experiment [3]; 100% in [4]; 90% in the experiment on Lolium perenne (LOLPE) [5]; 100% in the experiment with Setaria faberi (SETFA) [6]. Moreover, the pest or weed control at 125 g/ha in experiment [7] turned out to be 100%; with Avena fatua (AVEFA) [8] it was 90%; in [9], 100%; in experiment [10], 100%; in the experiment with Lolium perenne (LOLPE) [11], 100%; in the experiment on Setaria faberi (SETFA) [12], 100%.

Consider `CCc1cc(C)cc(CC)c1C1=C(OC(=O)CC(C)C)[C@H]2[C@@H](C1=O)[C@@H]1CC[C@H]2O1` [Example P19], for which the pest or weed control at 250 g/ha (in experiment [1]; in the experiment with Avena fatua (AVEFA) [2]; in [3]; in [4]; in the experiment with Lolium perenne (LOLPE) [5]; in the experiment on Setaria faberi (SETFA) [6]) was 100% throughout. Moreover, the pest or weed control at 125 g/ha (in experiment [7]; in the experiment with Avena fatua (AVEFA) [8]; in experiment [9]; in experiment [10]; in the experiment on Lolium perenne (LOLPE) [11]; in the experiment on Setaria faberi (SETFA) [12]) was 100% in each case.

For the molecule `C=CCC(=O)OC1=C(c2c(CC)cc(C)cc2CC)C(=O)[C@@H]2[C@H]1[C@H]1CC[C@@H]2O1` [Example P23], the pest or weed control at 250 g/ha in experiment [1] is 80%; in the experiment with Avena fatua (AVEFA) [2] it was 90%; in [3], 100%; in [4], 100%; with Lolium perenne (LOLPE) [5], 100%; in the experiment on Setaria faberi (SETFA) [6], 100%. Moreover, the pest or weed control at 125 g/ha in experiment [7] stood at 100%; in the experiment on Avena fatua (AVEFA) [8], 90%; in experiment [9], 70%; in experiment [10], 100%; with Lolium perenne (LOLPE) [11] it was 90%; with Setaria faberi (SETFA) [12], 80%.

For `CCc1cc(C)cc(CC)c1C1=C(OC(=O)C(C)C)[C@H]2[C@@H](C1=O)[C@@H]1CC[C@H]2O1` [Example P26], the pest or weed control at 250 g/ha is 100% in experiment [1]; 90% in the experiment on Avena fatua (AVEFA) [2]; 100% in experiment [3]; 100% in experiment [4]; 100% in the experiment with Lolium perenne (LOLPE) [5]; 100% in the experiment with Setaria faberi (SETFA) [6]. Also, the pest or weed control at 125 g/ha in experiment [7] was found to be 100%; in the experiment with Avena fatua (AVEFA) [8], 100%; in [9], 100%; in [10], 100%; in the experiment on Lolium perenne (LOLPE) [11], 90%; in the experiment on Setaria faberi (SETFA) [12], 100%.

With `CCc1cc(C)cc(C)c1C1=C(O)[C@H]2[C@@H](C1=O)[C@@H]1CC[C@H]2O1` [Example T2], the pest or weed control at 250 g/ha in experiment [1] was 100%; in the experiment with Avena fatua (AVEFA) [2], 100%; in experiment [3], 100%; in experiment [4], 100%; with Lolium perenne (LOLPE) [5], 100%; in the experiment on Setaria faberi (SETFA) [6], 90%. The pest or weed control at 125 g/ha in [7] worked out at 100%; in the experiment with Avena fatua (AVEFA) [8] it was 90%; in experiment [9], 100%; in experiment [10] it was 100%; with Lolium perenne (LOLPE) [11], 100%; in the experiment with Setaria faberi (SETFA) [12] it was 80%.

As to `CCc1cc(C)cc(CC)c1C1=C(O)[C@H]2[C@@H](C1=O)[C@@H]1C=C[C@H]2O1` [Example T4], the pest or weed control at 250 g/ha in experiment [1] is 90%; in the experiment with Avena fatua (AVEFA) [2] it was 90%; in experiment [3] it was 100%; in experiment [4] it was 100%; in the experiment on Lolium perenne (LOLPE) [5], 100%; in the experiment with Setaria faberi (SETFA) [6], 90%. In addition, the pest or weed control at 125 g/ha came to 80% in experiment [7]; 90% in the experiment with Avena fatua (AVEFA) [8]; 80% in [9]; 100% in [10]; 90% with Lolium perenne (LOLPE) [11]; 80% in the experiment on Setaria faberi (SETFA) [12].

Take `CCc1cc(CC)c(C2=C(O)[C@H]3[C@@H](C2=O)[C@@H]2CC[C@H]3O2)c(CC)c1` [Example T5]: the pest or weed control at 250 g/ha in experiment [1] turned out to be 100%; with Avena fatua (AVEFA) [2] it was 80%; in [3], 100%; in experiment [4], 100%; in the experiment on Lolium perenne (LOLPE) [5] it was 100%; in the experiment on Setaria faberi (SETFA) [6] it was 80%. The pest or weed control at 125 g/ha came to 70% in [7]; 70% with Avena fatua (AVEFA) [8]; 100% in experiment [9]; 100% in [10]; 80% in the experiment on Lolium perenne (LOLPE) [11]; 90% in the experiment on Setaria faberi (SETFA) [12].

For `Cc1cc(C)c(C2=C(O)[C@H]3[C@@H](C2=O)[C@]2(C)CC[C@@]3(C)O2)c(C)c1` [Example T6], the pest or weed control at 250 g/ha was 80% in experiment [1]; 30% in the experiment with Avena fatua (AVEFA) [2]; 90% in [3]; 90% in experiment [4]; 100% in the experiment with Lolium perenne (LOLPE) [5]; 80% in the experiment on Setaria faberi (SETFA) [6]. The pest or weed control at 125 g/ha in [7] was found to be 80%; in the experiment on Avena fatua (AVEFA) [8] it was 80%; in [9] it was 90%; in experiment [10] it was 90%; in the experiment with Lolium perenne (LOLPE) [11], 80%; with Setaria faberi (SETFA) [12], 80%.

As for `CCc1cc(C)cc(CC)c1C1=C(O)[C@H]2[C@@H](C1=O)[C@]1(C)CC[C@@]2(C)O1` [Example T7], the pest or weed control at 250 g/ha amounted to 100% in [1]; 80% in the experiment on Avena fatua (AVEFA) [2]; 80% in experiment [3]; 90% in [4]; 100% in the experiment on Lolium perenne (LOLPE) [5]; 90% in the experiment with Setaria faberi (SETFA) [6]. The pest or weed control at 125 g/ha came out at 100% in [7]; 90% in the experiment on Avena fatua (AVEFA) [8]; 70% in experiment [9]; 90% in experiment [10]; 90% in the experiment on Lolium perenne (LOLPE) [11]; 90% with Setaria faberi (SETFA) [12].

Regarding `CCc1cc(C)cc(CC)c1C1=C(O)[C@H]2[C@@H](C1=O)[C@@H]1CC[C@@]2(C)O1` [Example T8], the pest or weed control at 250 g/ha in experiment [1] is 100%; with Avena fatua (AVEFA) [2], 90%; in [3], 100%; in experiment [4], 100%; in the experiment with Lolium perenne (LOLPE) [5], 100%; in the experiment on Setaria faberi (SETFA) [6] it was 100%. Also, the pest or weed control at 125 g/ha (in experiment [7]; in the experiment on Avena fatua (AVEFA) [8]; in experiment [9]; in experiment [10]; in the experiment on Lolium perenne (LOLPE) [11]; in the experiment on Setaria faberi (SETFA) [12]) was 100% each time.
